Assay [1] addresses T1, human delta opioid receptor (hDOR) (Homo sapiens, UniProt P41143).
T1 construct: expressed in transfected cells; membranes
Briefly: Radioligand competition binding, [3H]naltrindole, hDOR CHO cell membranes. The following applies: for rank order of affinity for the delta receptor: peptides at 100 nM and 1 nM vs. 0.2 nM [3H]Naltrindole, 20 ug hDOR CHO cell membranes (FIGS. 1 and 2). (In general: Displacement assays read how much labelled ligand stays bound in the presence of the test substance.)

The target in assay [2] is T2, human mu opioid receptor (hMOR) (Homo sapiens, UniProt P35372).
T2 construct: expressed in transfected cells; membranes
Briefly: Radioligand competition binding, [3H]DAMGO, hMOR CHO cell membranes.

Assay [3] concerns the target T3, human kappa opioid receptor (hKOR) (Homo sapiens, UniProt P41145).
T3 construct: expressed in transfected cells; membranes
Briefly: Radioligand binding, [3H]U69,593, hKOR CHO cell membranes. The following applies: peptide at 10 uM, read-out: Max Inhib at 10 uM (%) Kappa [3H]U69,593 Mean.

The target in another assay is T4, hDOR (Homo sapiens, UniProt P41143).
T4 construct: expressed in transfected cells; membranes
Nature of the assay: [35S]GTPγS binding assay, hDOR CHO cell membranes. The class given is biochemical. The following applies: for Antagonist Properties Imax (%) Delta Mean: cell wraps over r13-r15: No Inhibition; for Description: Delta: functional classification; for Emax: read-out: Agonist Properties EMax (%) Delta Mean. Here is the method:
(§1) GTPγS binding assay to determine if the peptide is an agonist, antagonist, or partial agonist at the DOR. Membranes from the CHO cell lines, expressing either the MOR, DOR or KOR, will be incubated with 12 concentrations of each peptide for 60 min at 30° C. in a final volume of 0.5 mL of assay buffer (50 mM Tris-HCl, 3 mM MgCl2, 0.2 mM EGTA, 100 mM NaCl, pH 7.5) containing 3 μM GDP and 0.08 nM [^35S] GTPγS. Basal binding is determined in the presence of GDP and the absence of opioids, and nonspecific binding is determined by including 10 μM unlabeled […] GTPγS. The incubation is terminated by filtration under vacuum through glass fiber filters, followed by three washes with 3-ml ice-cold 50 mM Tris-HCl, pH 7.5. Samples are allowed to equilibrate overnight and are counted in 2 ml of Ecoscint A scintillation fluid for 2 min in a liquid scintillation counter.
(§2) GTPγS binding assay described in Example 3.

The target of a further assay is T5, hMOR (Homo sapiens, UniProt P35372).
T5 construct: expressed in transfected cells; membranes
Briefly: [35S]GTPγS binding assay, hMOR CHO cell membranes. Type of assay: biochemical. As to conditions: for Antagonist Properties Imax (%) Mu Mean: cell wraps over r13-r15: No Inhibition; for Description: Mu: functional classification; for Emax: hMOR CHO cell membranes, @ 10 um, read-out: Agonist Properties EMax (%) Mu Mean. Here is the method: as §1, §2
(In general: GTPγS resists hydrolysis and so accumulates on activated G proteins.)

Another assay deals with mouse tail flick. Briefly: Mouse tail flick assay, oral availability of formulations. The class given is in vivo. As to conditions: for antinociceptive activity: 32 mg/kg.

The values that follow come from patent US8575309B2, “Delta-opioid receptor selective analgesics” (Biousian Biosystems, Inc., priority 2008, dated 2013).

Where two headings read alike, the source gives them in different places. Non-standard residues stand in square brackets, D forms with d. Residues, ends and D or L forms follow the SMILES beside them. *: point of attachment. βGlc = OC[C@H]1O[C@@H](*)[C@H](O)[C@@H](O)[C@@H]1O; Nle = CCCC[C@H](N)C(=O)O; Nva = CCC[C@H](N)C(=O)O

T5 sequence (P35372 whole entry): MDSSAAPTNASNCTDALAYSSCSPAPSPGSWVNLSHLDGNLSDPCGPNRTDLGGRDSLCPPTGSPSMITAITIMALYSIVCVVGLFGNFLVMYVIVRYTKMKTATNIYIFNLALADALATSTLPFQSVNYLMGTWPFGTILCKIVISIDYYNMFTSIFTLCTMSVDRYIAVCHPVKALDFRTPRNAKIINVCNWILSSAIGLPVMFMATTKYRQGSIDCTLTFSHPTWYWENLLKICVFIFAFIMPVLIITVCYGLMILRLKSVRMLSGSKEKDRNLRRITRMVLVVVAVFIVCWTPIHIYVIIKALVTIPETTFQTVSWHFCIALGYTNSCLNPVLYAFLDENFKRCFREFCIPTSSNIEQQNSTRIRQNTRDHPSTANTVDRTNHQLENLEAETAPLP
T1 sequence (P41143 whole entry): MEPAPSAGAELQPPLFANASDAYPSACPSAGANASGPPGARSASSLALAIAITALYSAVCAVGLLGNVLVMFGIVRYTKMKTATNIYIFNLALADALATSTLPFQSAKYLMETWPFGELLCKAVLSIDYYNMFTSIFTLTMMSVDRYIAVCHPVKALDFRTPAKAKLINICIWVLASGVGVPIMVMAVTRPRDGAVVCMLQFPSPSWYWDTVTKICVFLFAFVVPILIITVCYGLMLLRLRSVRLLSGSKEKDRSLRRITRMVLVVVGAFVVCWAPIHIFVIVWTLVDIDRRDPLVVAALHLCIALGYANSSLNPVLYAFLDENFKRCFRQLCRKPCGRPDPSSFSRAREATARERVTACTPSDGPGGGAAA
T4 sequence (P41143 whole entry): as above
T2 sequence (P35372 whole entry): as the sequence (P35372 whole entry) above
T3 sequence (P41145 whole entry): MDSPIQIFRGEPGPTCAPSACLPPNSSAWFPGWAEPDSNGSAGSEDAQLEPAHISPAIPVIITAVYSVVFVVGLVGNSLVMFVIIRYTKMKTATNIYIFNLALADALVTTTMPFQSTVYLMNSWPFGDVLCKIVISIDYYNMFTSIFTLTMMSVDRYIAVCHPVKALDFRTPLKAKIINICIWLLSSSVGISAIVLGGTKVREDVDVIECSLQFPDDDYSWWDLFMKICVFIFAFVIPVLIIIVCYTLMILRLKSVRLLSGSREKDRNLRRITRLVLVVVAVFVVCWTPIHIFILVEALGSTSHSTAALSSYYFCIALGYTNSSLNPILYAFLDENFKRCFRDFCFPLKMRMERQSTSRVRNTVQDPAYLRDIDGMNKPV

Consider “H2N-YaFHLAT(beta-D-Glc)-amide (H-Y[dA]FHLAT(βGlc)-NH2; SMILES CC(C)C[C@H](NC(=O)[C@H](Cc1c[nH]cn1)NC(=O)[C@H](Cc1ccccc1)NC(=O)[C@@H](C)NC(=O)[C@@H](N)Cc1ccc(O)cc1)C(=O)N[C@@H](C)C(=O)N[C@H](C(N)=O)[C@@H](C)O[C@@H]1O[C@H](CO)[C@@H](O)[C@H](O)[C@H]1O) [Peptide 11004]”, for which the “rank order of affinity for the delta receptor” value in assay [1] is “[11001≈111003≈11008≈DPDDE]>[11005≈11006≈11007]>[11002≈11004]>Lsz27”.

Take “H2N-YmFHLMS(beta-D-Glc)-amide (H-Y[dM]FHLMS(βGlc)-NH2; SMILES CSCC[C@H](NC(=O)[C@H](CC(C)C)NC(=O)[C@H](Cc1c[nH]cn1)NC(=O)[C@H](Cc1ccccc1)NC(=O)[C@@H](CCSC)NC(=O)[C@@H](N)Cc1ccc(O)cc1)C(=O)N[C@@H](CO[C@@H]1O[C@H](CO)[C@@H](O)[C@H](O)[C@H]1O)C(N)=O) [Peptide 11001]”: in assay [1], the “rank order of affinity for the delta receptor” value was “[11001≈111003≈11008≈DPDDE]>[11005≈11006≈11007]>[11002≈11004]>Lsz27”.

As usually defined, the IC50 is the concentration needed to halve the response being measured. In general, Ki refers to a measure of affinity in units of concentration, obtained from inhibition or displacement. High values mean a looser hold on the target, low ones a stronger hold on the target. Take `CCC[C@H](NC(=O)[C@H](CCC)NC(=O)[C@H](CCC(=O)O)NC(=O)[C@H](Cc1ccccc1)NC(=O)[C@@H](C)NC(=O)[C@@H](N)Cc1ccc(O)cc1)C(=O)N[C@@H](CO[C@@H]1O[C@H](CO)[C@@H](O)[C@H](O)[C@H]1O)C(N)=O` [Peptide 11005, H2N-YaFE-Nva-Nva-S(beta-D-Glc)-amide] (H-Y[dA]FE[Nva][Nva]S(βGlc)-NH2): in assay [1], the IC50 worked out at 61 nM, the affinity corresponds to a Ki of 20 nM and the “rank order of affinity for the delta receptor” value is “[11001≈111003≈11008≈DPDDE]>[11005≈11006≈11007]>[11002≈11004]>Lsz27”. The same compound registered a Ki in assay [2] of 710 nM. The inhibition at 10 µM in assay [3] is 5.3%.

In the case of “H2N-YaFHLAS(beta-D-Glc)-amide (H-Y[dA]FHLAS(βGlc)-NH2; SMILES CC(C)C[C@H](NC(=O)[C@H](Cc1c[nH]cn1)NC(=O)[C@H](Cc1ccccc1)NC(=O)[C@@H](C)NC(=O)[C@@H](N)Cc1ccc(O)cc1)C(=O)N[C@@H](C)C(=O)N[C@@H](CO[C@@H]1O[C@H](CO)[C@@H](O)[C@H](O)[C@H]1O)C(N)=O) [Peptide 11002]”, the “rank order of affinity for the delta receptor” value in assay [1] was “[11001≈111003≈11008≈DPDDE]>[11005≈11006≈11007]>[11002≈11004]>Lsz27”.

As to “H2N-YmFHLMT(beta-D-Glc)-amide (H-Y[dM]FHLMT(βGlc)-NH2; SMILES CSCC[C@H](NC(=O)[C@H](CC(C)C)NC(=O)[C@H](Cc1c[nH]cn1)NC(=O)[C@H](Cc1ccccc1)NC(=O)[C@@H](CCSC)NC(=O)[C@@H](N)Cc1ccc(O)cc1)C(=O)N[C@H](C(N)=O)[C@@H](C)O[C@@H]1O[C@H](CO)[C@@H](O)[C@H](O)[C@H]1O) [Peptide 11003]”, the “rank order of affinity for the delta receptor” value in assay [1] is “[11001≈111003≈11008≈DPDDE]>[11005≈11006≈11007]>[11002≈11004]>Lsz27”.

In the case of `CCCC[C@H](NC(=O)[C@H](CCC(=O)O)NC(=O)[C@H](Cc1ccccc1)NC(=O)[C@@H](C)NC(=O)[C@@H](N)Cc1ccc(O)cc1)C(=O)N[C@@H](CCCC)C(=O)N[C@H](C(N)=O)[C@@H](C)O` [Peptide 11009, H2N-YaFE-Nle-Nle-T-amide] (H-Y[dA]FE[Nle][Nle]T-NH2), on hDOR, the “Antagonist Properties Imax (%) Delta Mean” value is “No” and the “Description: Delta” value was “Agonist”. Moreover, the EC50 at hDOR (hDOR CHO cell membranes, read-out: Agonist Properties EC50 (nM) Delta Mean) worked out at 12 nM. For the same compound, on hDOR (hDOR CHO cell membranes), the Emax was 67%. At hMOR, the “Antagonist Properties Imax (%) Mu Mean” value is given as “No”, the “Description: Mu” value is recorded as “Very weak agonist” and the Emax is 42%.

Regarding `CCCC[C@H](NC(=O)[C@H](CCC(=O)O)NC(=O)[C@H](Cc1ccccc1)NC(=O)[C@@H](C)NC(=O)[C@@H](N)Cc1ccc(O)cc1)C(=O)N[C@@H](CCCC)C(=O)N[C@H](C(N)=O)[C@@H](C)O[C@@H]1O[C@H](CO)[C@@H](O)[C@H](O)[C@H]1O` [Peptide 11008, H2N-YaFE-Nle-Nle-T(beta-D-Glc)-amide] (H-Y[dA]FE[Nle][Nle]T(βGlc)-NH2), in assay [1], the 50% inhibitory concentration (IC50) worked out at 42 nM, the affinity corresponds to a Ki of 14 nM and the “rank order of affinity for the delta receptor” value was “[11001≈111003≈11008≈DPDDE]>[11005≈11006≈11007]>[11002≈11004]>Lsz27”. The “lower affinity for delta than DPDPE” value in assay [1] (relative to DPDPE) is reported as about 3 fold. The affinity in assay [2] corresponds to a Ki of 1100 nM. Further, the inhibition at 10 µM in assay [3] stood at 2.9%. Also, at hDOR, the EC50 turned out to be 12 nM, the “Antagonist Properties Imax (%) Delta Mean” value was “No” and the “Description: Delta” value was “Agonist”. For the same compound, the Emax at hDOR (hDOR CHO cell membranes) stood at 75%. Also, on hMOR, the “Antagonist Properties Imax (%) Mu Mean” value is recorded as “No”, the “Description: Mu” value is “Very weak agonist” and the Emax amounted to 27%. Besides, in the assay on mouse tail flick (oral formulation, 3.2 mg/kg), the “efficacy of oral formulation versus unformulated glycopeptide” value is recorded as “just slightly lower efficacy than that produced by 32 mg/kg of unformulated glycopeptide 11008”. For the same compound, in the assay with mouse tail flick (oral formulation), the antinociceptive activity was determined as 75%. The antinociceptive activity in the assay with mouse tail flick (saline formulation (unformulated)) amounted to 30%.

Take “H2N-YaFE-Nle-Nle-S(beta-D-Glc)-amide (H-Y[dA]FE[Nle][Nle]S(βGlc)-NH2; SMILES CCCC[C@H](NC(=O)[C@H](CCCC)NC(=O)[C@H](CCC(=O)O)NC(=O)[C@H](Cc1ccccc1)NC(=O)[C@@H](C)NC(=O)[C@@H](N)Cc1ccc(O)cc1)C(=O)N[C@@H](CO[C@@H]1O[C@H](CO)[C@@H](O)[C@H](O)[C@H]1O)C(N)=O) [Peptide 11006]”: the “rank order of affinity for the delta receptor” value in assay [1] is “[11001≈111003≈11008≈DPDDE]>[11005≈11006≈11007]>[11002≈11004]>Lsz27”.

For “H2N-YaFE-Nva-Nva-T(beta-D-Glc)-amide (H-Y[dA]FE[Nva][Nva]T(βGlc)-NH2; SMILES CCC[C@H](NC(=O)[C@H](CCC(=O)O)NC(=O)[C@H](Cc1ccccc1)NC(=O)[C@@H](C)NC(=O)[C@@H](N)Cc1ccc(O)cc1)C(=O)N[C@@H](CCC)C(=O)N[C@H](C(N)=O)[C@@H](C)O[C@@H]1O[C@H](CO)[C@@H](O)[C@H](O)[C@H]1O) [Peptide 11007]”, in assay [1], the “rank order of affinity for the delta receptor” value was “[11001≈111003≈11008≈DPDDE]>[11005≈11006≈11007]>[11002≈11004]>Lsz27”.
